Data published in patent US20180028477A1, “TREATMENT OF CARDIAC REMODELING AND OTHER HEART CONDITIONS” (C & C BIOPHARMA, LLC, priority 2013, published 2018).
Entries after “also recorded” stand apart in the source; their conditions may differ.

Key:
[1] = tested on: Neonatal Rat Ventricular Myocytes (NRVMs); assay: Serum (FBS)-induced hypertrophy of Neonatal Rat Ventricular Myocytes in vitro; assay type: cell-based; details: for viability: NRVMs (not shown); for order of potency for inhibitors / growth response to Fetal Bovine Serum / serum-stimulated myocyte growth (hypertrophy): NRVMs; for order of potency for inhibitors: FBS-induced growth; for growth response to Fetal Bovine Serum / serum-stimulated myocyte growth (hypertrophy): pre-treatment with a range of doses
Procedure: The cells were also treated with DMSO (light gray bars) or a vehicle (dark gray bars) as a negative control. The order of potency for inhibitors was DMSO<7MI<TSA<8MI. Viability was unchanged (not shown).
Next, the ability of 7MI and 8MI to inhibit hypertrophy in vitro was tested (FIG. 2A). […] However, fetal calf serum, which contained a rich variety of growth factors, was chosen as the most robust and multifactorial stimulus for cardiomyocyte growth available, reasoning that a similarly robust and powerful inhibitor would be required to block this hypertrophy.

[2] = Metabolic stability in human liver microsomes fortified with NADPH (Example 11); assay type: in vitro ADME; design: CLint scaled: dose or concentration left out as unconfirmed; details: for K (rate constant): 0.5 mg/mL human liver microsomes, 1 mM NADPH, pH 7.4, 37° C.; for Clhp (hepatic clearance) / CLint scaled / metabolic stability / clearance in the liver, in words / intrinsic clearance (Clint) rate, fold higher than 7MI / intrinsic clearance (Clint) rate, fold higher than 8MI: human liver microsomes; for CLint scaled: pH 7.4, from mono-exponential decay model, read-out: Clint (intrinsic clearance); for metabolic stability / clearance in the liver, in words: comparison of 7MI, 8MI, BML-210, TSA; for intrinsic clearance (Clint) rate, fold higher than 7MI: ratio to 7MI; for intrinsic clearance (Clint) rate, fold higher than 8MI: ratio to 8MI
Source text: Drug clearance is a measure of the ability of the body or an organ to eliminate a drug from the blood circulation. Systemic clearance is a measure of the ability of the entire body to eliminate the drug. Organ clearance is a measure of the ability of a particular organ (hepatic or renal) to eliminate the drug. For hepatic clearance, the liver is the major organ for drug metabolism and the key organ for drug clearance. Human liver microsomes (HLM) fortified with NADPH is a standard way to measure in vitro metabolism and predict in vivo clearance. CLint (intrinsic clearance) is the link between in vitro and in vivo studies, which can be estimated based on the mono-exponential decay model: Ct=C X e^−kt.
Human liver microsomes fortified with NADPH is a standard approach to evaluate metabolic stability mediated by CYP (cytochrome P450) enzymes in vitro. The reaction mixture (0.4 mL) contained 0.5 mg/mL human liver microsomes, 100 mM phosphate buffer (pH 7.4) and […] of test compounds. The mixture was first warmed up for 5 min in a 37° C. shaking water bath and then NADPH at a final concentration of 1 mM was added to initiate the reaction. Aliquots […] were taken at specified time points and mixed with ice-cold methanol (containing internal standard) to stop the reaction. The mixture was vortexed briefly and centrifuged for protein precipitation. An aliquot of […] supernatant was subject to LC-MS/MS analysis. The percentage of compound disappearance was used to calculate the rate of metabolism.

HDACs = details: background statement; cited from earlier work
[3] = mice, previously reported, cited from earlier work

Structure (SMILES) | viability [1] | order of potency for inhibitors [1] | growth response to Fetal Bovine Serum / serum-stimulated myocyte growth (hypertrophy) [1] | K (rate constant) [2] [min⁻¹] | Clhp (hepatic clearance) [2] [mL/min/kg] | CLint scaled [2] [mL/min/kg] | metabolic stability / clearance in the liver, in words [2] | intrinsic clearance (Clint) rate, fold higher than 7MI [2] [fold] | intrinsic clearance (Clint) rate, fold higher than 8MI [2] [fold] | HDAC inhibition range (HDACs) | survival at the tolerated daily dosage ([3]; 1 mg/kg) | tolerated daily dosage [3] [mg/kg]
Nc1ccccc1NC(=O)CCCCCC(=O)Nc1ccc(Br)cc1 [7MI] | unchanged | DMSO<7MI<TSA<8MI | sufficient to block myocyte hypertrophy; also recorded: depressed growth response | 0.0027 | 2.45 | 2.78 |  |  |  |  |  | 
Nc1ccccc1NC(=O)CCCCCCC(=O)Nc1ccccc1 [BML-210, reference compound] |  |  |  | 0.0116 | 7.57 | 11.9 | high clearance compound | 4.3 | 2.5 |  |  | 
O=C(CCCCCN1C(=O)c2cccc3cccc(c23)C1=O)NO [Scriptaid] |  |  |  |  |  |  |  |  |  | low nanomolar range |  | 
CC(/C=C/C(=O)NO)=C\[C@@H](C)C(=O)c1ccc(N(C)C)cc1 [TSA, Trichostatin A, reference compound] | unchanged | DMSO<7MI<TSA<8MI | depressed growth response | 0.0088 | 6.30 | 9.05 | metabolically cleared much faster than 7MI or 8MI | 3.2 | 1.9 | low nanomolar range | not all of the mice survived | 1
